Measured values as given in patent US4160829A, “Antibacterial 1,2,4-oxadiazolylacetamido cephalosporins” (Gist-Brocades N.V., priority 1972, dated 1979).
Converted amounts (≈) assume the structure as drawn.

Key:
[1] = test system: Staph.aureus A 2001; assay: agar serial dilution test; type: cell-based, Staphylococcus aureus; conditions: agar serial dilution, 24 hours, 37° C.
[2] = test system: Pseud.aerug. H 10; assay: agar serial dilution test; type: cell-based; conditions: agar serial dilution, 24 hours, 37° C.
[3] = test system: Staph.aureus A 2001; assay: micro serial dilution test; type: cell-based, Staphylococcus aureus; conditions: micro serial dilution (in brackets), about 18 hours, 30° C. or 37° C.
[4] = test system: Strep. faec. L 80; assay: agar serial dilution test; type: cell-based, Streptococcus faecalis; conditions: agar serial dilution, 24 hours, 37° C.
[5] = test system: Staph.aureus A 2000; assay: agar serial dilution test; type: cell-based, Staphylococcus aureus; conditions: agar serial dilution, 24 hours, 37° C.
[6] = test system: Pseud.aerug. 2396; assay: agar serial dilution test; type: cell-based; conditions: agar serial dilution, 24 hours, 37° C.
[7] = test system: Prot.mirab. A 1200; assay: agar serial dilution test; type: cell-based, Proteus mirabilis; conditions: agar serial dilution, 24 hours, 37° C.
[8] = test system: Staph.aureus A 321; assay: agar serial dilution test; type: cell-based, Staphylococcus aureus; conditions: agar serial dilution, 24 hours, 37° C.
[9] = test system: Dipl.pneum. L 54; assay: agar serial dilution test; type: cell-based, Diplococcus pneumoniae; conditions: agar serial dilution, 24 hours, 37° C.
[10] = test system: Staph.aureus A 2000; assay: micro serial dilution test; type: cell-based, Staphylococcus aureus; conditions: micro serial dilution (in brackets), about 18 hours, 30° C. or 37° C.
[11] = test system: Prot.mirab. L 93; assay: agar serial dilution test; type: cell-based, Proteus mirabilis; conditions: agar serial dilution, 24 hours, 37° C.
[12] = test system: Prot.morg. 2241; assay: agar serial dilution test; type: cell-based; conditions: agar serial dilution, 24 hours, 37° C.
[13] = test system: Salm.dubl. P 43; assay: agar serial dilution test; type: cell-based, Salmonella dublin; conditions: agar serial dilution, 24 hours, 37° C.
[14] = test system: Prot.rettg. A 821; assay: agar serial dilution test; type: cell-based, Proteus rettgeri; conditions: agar serial dilution, 24 hours, 37° C.
[15] = test system: Past.multo. A 723; assay: agar serial dilution test; type: cell-based, Pasteurella multocida; conditions: agar serial dilution, 24 hours, 37° C.
[16] = test system: Staph.aureus A 355; assay: micro serial dilution test; type: cell-based, Staphylococcus aureus; conditions: micro serial dilution (in brackets), about 18 hours, 30° C. or 37° C., penicillinase-producing strain
Excerpt: Two drops of a stock solution of the test compound (antibiotic) in a known concentration were brought into the first hole of a test plate with 9 numbered holes with a sterile Pasteur pipette. After rinsing this pipette three times with a physiological NaCl-solution, two drops of a stock solution of the test organism in a culture medium were brought in all the holes except for hole 8. In the first hole, the solution of the tested compound had been half diluted, then by stirring the liquid in the first hole and adding two drops of this mixture to the second hole and so on until hole 8, dilutions of the test compound solution were obtained in geometrical progression. The hole 9 contained no antibiotic and served for checking the growth of the testogranism in a blank medium. The test plate was incubated at 30° C. or 37° C. for about 18 hours.
^1 Penicillinase-producing strain

[17] = test system: Staph.aureus A 355; assay: agar serial dilution test; conditions: penicillinase-producing strain
[18] = test system: Kleb.pneum. A 809; assay: agar serial dilution test; type: cell-based, Klebsiella pneumoniae; conditions: agar serial dilution, 24 hours, 37° C.
[19] = test system: Prot.mirab. H 3; assay: agar serial dilution test; type: cell-based, Proteus mirabilis; conditions: agar serial dilution, 24 hours, 37° C.
[20] = test system: Haem.infl. A 1030; assay: micro serial dilution test; type: cell-based; conditions: micro serial dilution (in brackets), about 18 hours, 30° C. or 37° C.
[21] = test system: Esch.coli U 20; assay: agar serial dilution test; type: cell-based, Escherichia coli; conditions: agar serial dilution, 24 hours, 37° C.
[22] = test system: Bac.Subt.ATCC 6633; assay: agar serial dilution test; type: cell-based, Bacillus subtilis; conditions: agar serial dilution, 24 hours, 37° C.
[23] = test system: Pseud.aerug. Wyeth A 1058; assay: agar serial dilution test; type: cell-based; conditions: agar serial dilution, 24 hours, 37° C.
[24] = test system: Salm.typh. R 127; assay: agar serial dilution test; type: cell-based; conditions: 37° C.
[25] = test system: Shig.equir. T 3; assay: agar serial dilution test; type: cell-based; conditions: 37° C.
[26] = test system: Strep.haem. A 266; assay: agar serial dilution test; type: cell-based, Streptococcus haemolyticus; conditions: Streptococcus; agar serial dilution, 24 hours, 37° C.; read-out: minimal inhibitory concentration (MIC)
[27] = read-out: minimal inhibitory concentration (MIC)
[28] = Proteus mirabilis, read-out: minimal inhibitory concentration (MIC)
[29] = 24 h, read-out: minimal inhibitory concentration (MIC)

## 7-[α-morpholino(3-methyl-1,2,4-oxadiazol-5-yl)-acetamido]-3-acetoxymethyl-3-cephem-4-carboxylic acid [Compound E]
[1]
  minimal inhibitory concentration (MIC): 12.5 µg/mL
[2]
  minimal inhibitory concentration (MIC): > 100 µg/mL
[3]
  minimal inhibitory concentration (MIC): 4 µg/mL
[4]
  minimal inhibitory concentration (MIC): > 100 µg/mL
[5]
  minimal inhibitory concentration (MIC): 12.5 µg/mL
[6]
  minimal inhibitory concentration (MIC): > 100 µg/mL
[7]
  minimal inhibitory concentration (MIC): > 100 µg/mL
[8]
  minimal inhibitory concentration (MIC): 6 µg/mL
[9]
  minimal inhibitory concentration (MIC): 12.5 µg/mL
[10]
  minimal inhibitory concentration (MIC): 8 µg/mL
[11]
  minimal inhibitory concentration (MIC): 100 µg/mL
[12]
  minimal inhibitory concentration (MIC): > 100 µg/mL
[13]
  minimal inhibitory concentration (MIC): > 100 µg/mL
[14]
  minimal inhibitory concentration (MIC): 3 µg/mL
[15]
  minimal inhibitory concentration (MIC): 6 µg/mL
[16]
  minimal inhibitory concentration (MIC): 8 µg/mL
[17]; agar serial dilution, 24 hours, 37° C.
  minimal inhibitory concentration (MIC): 12.5 µg/mL
[18]
  minimal inhibitory concentration (MIC): 25 µg/mL
[19]
  minimal inhibitory concentration (MIC): > 100 µg/mL
[20]
  minimal inhibitory concentration (MIC): > 125 µg/mL
[21]
  minimal inhibitory concentration (MIC): > 100 µg/mL
[22]
  minimal inhibitory concentration (MIC): 6 µg/mL
[23]
  minimal inhibitory concentration (MIC): > 100 µg/mL
[24]; 24 hours
  minimal inhibitory concentration (MIC): > 100 µg/mL
[25]; 24 hours
  minimal inhibitory concentration (MIC): > 100 µg/mL

## CC(=O)OCC1=C(C(=O)O)N2C(=O)[C@@H](NC(=O)Cc3noc(Cc4ccccc4)n3)[C@H]2SC1 [Compound C, 7-[(5-benzyl-1,2,4-oxadiazol-3-yl)-acetamido]-3-acetoxymethyl-3-cephem-4-carboxylic acid]
[1]; Staphylococcus aureus, A2001, 24 h, read-out: minimal inhibitory concentration (MIC)
  MIC: 0.25 µg/mL (≈ 0.529 µM)
[2]; [27]
  MIC: > 100 µg/mL
[3]; Staphylococcus aureus, A2001, 18 h, read-out: minimal inhibitory concentration (MIC)
  MIC: 0.6 µg/mL (≈ 1.27 µM)
[4]; Enterococcus faecalis, read-out: minimal inhibitory concentration (MIC)
  MIC: 12.5 µg/mL (≈ 26.5 µM)
[5]; Staphylococcus aureus, A2000, 24 h, read-out: minimal inhibitory concentration (MIC)
  MIC: 0.25 µg/mL (≈ 0.529 µM)
[6]; [27]
  MIC: > 100 µg/mL
[7]; Proteus mirabilis, 24 h, read-out: minimal inhibitory concentration (MIC)
  MIC: > 100 µg/mL
[8]; Staphylococcus aureus, A321, 24 h, read-out: minimal inhibitory concentration (MIC)
  MIC: 0.25 µg/mL (≈ 0.529 µM)
[9]; Streptococcus pneumoniae, read-out: minimal inhibitory concentration (MIC)
  MIC: 0.5 µg/mL (≈ 1.06 µM)
[10]; Staphylococcus aureus, A2000, 18 h, read-out: minimal inhibitory concentration (MIC)
  MIC: 0.3 µg/mL (≈ 0.635 µM)
[11]; [28]
  MIC: 25 µg/mL (≈ 52.9 µM)
[12]; [29]
  MIC: > 100 µg/mL
[13]; Salmonella enterica, read-out: minimal inhibitory concentration (MIC)
  MIC: > 100 µg/mL
[14]; Providencia rettgeri, 24 h, read-out: minimal inhibitory concentration (MIC)
  MIC: 50 µg/mL (≈ 106 µM)
[15]; Pasteurella multocida, read-out: minimal inhibitory concentration (MIC)
  MIC: 1 µg/mL (≈ 2.12 µM)
[16]; Staphylococcus aureus, A355, read-out: minimal inhibitory concentration (MIC)
  MIC: 0.6 µg/mL (≈ 1.27 µM)
[17]; Staphylococcus aureus, A355, 24 h, read-out: minimal inhibitory concentration (MIC), agar serial dilution, 24 hours, 37° C.
  MIC: 0.75 µg/mL (≈ 1.59 µM)
[18]; Klebsiella pneumoniae, read-out: minimal inhibitory concentration (MIC)
  MIC: 12.5 µg/mL (≈ 26.5 µM)
[19]; [28]
  MIC: > 100 µg/mL
[20]; 18 h, read-out: minimal inhibitory concentration (MIC)
  MIC: 125 µg/mL (≈ 265 µM)
[21]; Escherichia coli, U20, read-out: minimal inhibitory concentration (MIC)
  MIC: > 100 µg/mL
[22]; Bacillus subtilis, ATCC6633, 24 h, read-out: minimal inhibitory concentration (MIC)
  MIC: 0.25 µg/mL (≈ 0.529 µM)
[23]; [27]
  MIC: > 100 µg/mL
[24]; [29]
  MIC: > 100 µg/mL
[26]
  MIC: 0.5 µg/mL (≈ 1.06 µM)
[25]; [29]
  MIC: 25 µg/mL (≈ 52.9 µM)
